The source of these data is ChEMBL document CHEMBL1765029, “Synthesis and biological evaluation of estradiol linked pyrrolo[2,1-c][1,4]benzodiazepine (PBD) conjugates as potential anticancer agents” (2011).

SMILES strings stand for the structures.

The first assay has as its system HOP-62. Briefly: Cytotoxicity against human HOP62 cells by sulforhodamine B method. In kind it is functional. A general note: Sulforhodamine B stains cellular protein and so reports cell mass.
One may read the GI50 as the concentration that inhibits growth by half. High values mean lower sensitivity of the cells, low ones greater sensitivity of the cells. `COc1cc2c(cc1OCCCCCN1CCN(CCCCCOc3ccc4c(c3)CC[C@@H]3[C@@H]4CC[C@]4(C)[C@@H](O)CC[C@@H]34)CC1)N=C[C@@H]1C[C@@H](F)CN1C2=O` yielded a 50% growth inhibitory concentration (GI50) of 0.13 µM.
As for `COc1cc2c(cc1OCc1cn(CCCOc3ccc4c(c3)CC[C@@H]3[C@@H]4CC[C@]4(C)[C@@H](O)CC[C@@H]34)nn1)N=C[C@@H]1CC(F)(F)CN1C2=O`, the GI50 came to 0.18 µM.
As to `COc1cc2c(cc1OCCCCCOc1ccc3c(c1)CC[C@@H]1[C@@H]3CC[C@]3(C)[C@@H](O)CC[C@@H]13)N=C[C@@H]1CC(F)(F)CN1C2=O`, growth was halved (GI50) at 2.11 µM.

Another assay concerns COLO 205. In words: Cytotoxicity against human COLO205 cells by sulforhodamine B method. In kind it is functional.
For `COc1cc2c(cc1OCCCCCN1CCN(CCCCCOc3ccc4c(c3)CC[C@@H]3[C@@H]4CC[C@]4(C)[C@@H](O)CC[C@@H]34)CC1)N=C[C@@H]1C[C@@H](F)CN1C2=O`, growth was halved (GI50) at 0.14 µM.
Still for that read-out and setting: with `COc1cc2c(cc1OCc1cn(CCCOc3ccc4c(c3)CC[C@@H]3[C@@H]4CC[C@]4(C)[C@@H](O)CC[C@@H]34)nn1)N=C[C@@H]1CC(F)(F)CN1C2=O` the figure was 0.14 µM; with `COc1cc2c(cc1OCCCCCOc1ccc3c(c1)CC[C@@H]1[C@@H]3CC[C@]3(C)[C@@H](O)CC[C@@H]13)N=C[C@@H]1CC(F)(F)CN1C2=O`, 0.2 µM.

System in a further assay: not listed separately
In words: Cytotoxicity against human Gurav cells by sulforhodamine B method. In kind it is functional.
Consider `COc1cc2c(cc1OCCCCCN1CCN(CCCCCOc3ccc4c(c3)CC[C@@H]3[C@@H]4CC[C@]4(C)[C@@H](O)CC[C@@H]34)CC1)N=C[C@@H]1C[C@@H](F)CN1C2=O`, for which the GI50 was found to be 0.13 µM.
The same measure, in the same setting: with `COc1cc2c(cc1OCc1cn(CCCOc3ccc4c(c3)CC[C@@H]3[C@@H]4CC[C@]4(C)[C@@H](O)CC[C@@H]34)nn1)N=C[C@@H]1CC(F)(F)CN1C2=O` the figure was 0.17 µM; with `COc1cc2c(cc1OCCCCCOc1ccc3c(c1)CC[C@@H]1[C@@H]3CC[C@]3(C)[C@@H](O)CC[C@@H]13)N=C[C@@H]1CC(F)(F)CN1C2=O`, 2.19 µM.

A further assay relates to KB. In words: Cytotoxicity against human KB cells by sulforhodamine B method. In kind it is functional.
The compound `COc1cc2c(cc1OCCCCCN1CCN(CCCCCOc3ccc4c(c3)CC[C@@H]3[C@@H]4CC[C@]4(C)[C@@H](O)CC[C@@H]34)CC1)N=C[C@@H]1C[C@@H](F)CN1C2=O` registered a GI50 of 0.14 µM.
Still for that read-out and setting: the figure for `COc1cc2c(cc1OCc1cn(CCCOc3ccc4c(c3)CC[C@@H]3[C@@H]4CC[C@]4(C)[C@@H](O)CC[C@@H]34)nn1)N=C[C@@H]1CC(F)(F)CN1C2=O` is 0.19 µM; for `COc1cc2c(cc1OCCCCCOc1ccc3c(c1)CC[C@@H]1[C@@H]3CC[C@]3(C)[C@@H](O)CC[C@@H]13)N=C[C@@H]1CC(F)(F)CN1C2=O` it is 0.14 µM.

System in another assay: not listed separately
In words: Cytotoxicity against human DWD cells by sulforhodamine B method. In kind it is functional.
On to `COc1cc2c(cc1OCCCCCN1CCN(CCCCCOc3ccc4c(c3)CC[C@@H]3[C@@H]4CC[C@]4(C)[C@@H](O)CC[C@@H]34)CC1)N=C[C@@H]1C[C@@H](F)CN1C2=O`, for which the GI50 was 0.15 µM.
On the same count and under the same terms, with `COc1cc2c(cc1OCc1cn(CCCOc3ccc4c(c3)CC[C@@H]3[C@@H]4CC[C@]4(C)[C@@H](O)CC[C@@H]34)nn1)N=C[C@@H]1CC(F)(F)CN1C2=O` the figure was 0.17 µM.
Same read-out and setting: the figure for `COc1cc2c(cc1OCCCCCOc1ccc3c(c1)CC[C@@H]1[C@@H]3CC[C@]3(C)[C@@H](O)CC[C@@H]13)N=C[C@@H]1CC(F)(F)CN1C2=O` is 2.17 µM.

The next assay relates to A549. In words: Cytotoxicity against human A549 cells by sulforhodamine B method. In kind it is functional.
For the compound `COc1cc2c(cc1OCCCCCN1CCN(CCCCCOc3ccc4c(c3)CC[C@@H]3[C@@H]4CC[C@]4(C)[C@@H](O)CC[C@@H]34)CC1)N=C[C@@H]1C[C@@H](F)CN1C2=O`, the GI50 was 0.11 µM.
Still for that read-out and setting: with `COc1cc2c(cc1OCc1cn(CCCOc3ccc4c(c3)CC[C@@H]3[C@@H]4CC[C@]4(C)[C@@H](O)CC[C@@H]34)nn1)N=C[C@@H]1CC(F)(F)CN1C2=O` the figure was 0.17 µM; with `COc1cc2c(cc1OCCCCCOc1ccc3c(c1)CC[C@@H]1[C@@H]3CC[C@]3(C)[C@@H](O)CC[C@@H]13)N=C[C@@H]1CC(F)(F)CN1C2=O`, 2.81 µM.

A further assay has as its system A2780. Briefly: Cytotoxicity against human A2780 cells by sulforhodamine B method. In kind it is functional.
Consider `COc1cc2c(cc1OCCCCCN1CCN(CCCCCOc3ccc4c(c3)CC[C@@H]3[C@@H]4CC[C@]4(C)[C@@H](O)CC[C@@H]34)CC1)N=C[C@@H]1C[C@@H](F)CN1C2=O`, for which the GI50 came out at 0.11 µM.
For the compound `COc1cc2c(cc1OCc1cn(CCCOc3ccc4c(c3)CC[C@@H]3[C@@H]4CC[C@]4(C)[C@@H](O)CC[C@@H]34)nn1)N=C[C@@H]1CC(F)(F)CN1C2=O`, halving of growth (GI50) required 1.27 µM.
Still for that read-out and setting: the figure for `COc1cc2c(cc1OCCCCCOc1ccc3c(c1)CC[C@@H]1[C@@H]3CC[C@]3(C)[C@@H](O)CC[C@@H]13)N=C[C@@H]1CC(F)(F)CN1C2=O` is 2.12 µM.

The test system of a further assay is PC-3. Briefly: Cytotoxicity against human PC3 cells by sulforhodamine B method. In kind it is functional.
Compound `COc1cc2c(cc1OCCCCCN1CCN(CCCCCOc3ccc4c(c3)CC[C@@H]3[C@@H]4CC[C@]4(C)[C@@H](O)CC[C@@H]34)CC1)N=C[C@@H]1C[C@@H](F)CN1C2=O` displayed a GI50 of 0.17 µM.
Still for that read-out and setting: with `COc1cc2c(cc1OCc1cn(CCCOc3ccc4c(c3)CC[C@@H]3[C@@H]4CC[C@]4(C)[C@@H](O)CC[C@@H]34)nn1)N=C[C@@H]1CC(F)(F)CN1C2=O` the figure was 0.14 µM; with `COc1cc2c(cc1OCCCCCOc1ccc3c(c1)CC[C@@H]1[C@@H]3CC[C@]3(C)[C@@H](O)CC[C@@H]13)N=C[C@@H]1CC(F)(F)CN1C2=O`, 2.42 µM.

Another assay concerns SiHa. Briefly: Cytotoxicity against human SiHa cells by sulforhodamine B method. In kind it is functional.
On to `COc1cc2c(cc1OCCCCCN1CCN(CCCCCOc3ccc4c(c3)CC[C@@H]3[C@@H]4CC[C@]4(C)[C@@H](O)CC[C@@H]34)CC1)N=C[C@@H]1C[C@@H](F)CN1C2=O`, for which the GI50 came to 0.16 µM.
`COc1cc2c(cc1OCc1cn(CCCOc3ccc4c(c3)CC[C@@H]3[C@@H]4CC[C@]4(C)[C@@H](O)CC[C@@H]34)nn1)N=C[C@@H]1CC(F)(F)CN1C2=O`: growth was halved (GI50) at 1.12 µM.
As to `COc1cc2c(cc1OCCCCCOc1ccc3c(c1)CC[C@@H]1[C@@H]3CC[C@]3(C)[C@@H](O)CC[C@@H]13)N=C[C@@H]1CC(F)(F)CN1C2=O`, halving of growth (GI50) required 2.81 µM.

The subject of another assay is MCF7. In words: Cytotoxicity against human MCF7 cells by sulforhodamine B method. In kind it is functional.
Take `COc1cc2c(cc1OCCCCCN1CCN(CCCCCOc3ccc4c(c3)CC[C@@H]3[C@@H]4CC[C@]4(C)[C@@H](O)CC[C@@H]34)CC1)N=C[C@@H]1C[C@@H](F)CN1C2=O`: the GI50 was determined as 0.13 µM.
The same measure, in the same setting: with `COc1cc2c(cc1OCc1cn(CCCOc3ccc4c(c3)CC[C@@H]3[C@@H]4CC[C@]4(C)[C@@H](O)CC[C@@H]34)nn1)N=C[C@@H]1CC(F)(F)CN1C2=O` the figure was 0.11 µM; with `COc1cc2c(cc1OCCCCCOc1ccc3c(c1)CC[C@@H]1[C@@H]3CC[C@]3(C)[C@@H](O)CC[C@@H]13)N=C[C@@H]1CC(F)(F)CN1C2=O`, 0.17 µM.

In the next assay the test system is ZR-75-1. In words: Cytotoxicity against human ZR-75-1 cells by sulforhodamine B method. In kind it is functional.
Regarding `COc1cc2c(cc1OCCCCCN1CCN(CCCCCOc3ccc4c(c3)CC[C@@H]3[C@@H]4CC[C@]4(C)[C@@H](O)CC[C@@H]34)CC1)N=C[C@@H]1C[C@@H](F)CN1C2=O`, the GI50 is below 0.1 µM.
For the compound `COc1cc2c(cc1OCc1cn(CCCOc3ccc4c(c3)CC[C@@H]3[C@@H]4CC[C@]4(C)[C@@H](O)CC[C@@H]34)nn1)N=C[C@@H]1CC(F)(F)CN1C2=O`, growth was halved (GI50) at 0.17 µM.
`COc1cc2c(cc1OCCCCCOc1ccc3c(c1)CC[C@@H]1[C@@H]3CC[C@]3(C)[C@@H](O)CC[C@@H]13)N=C[C@@H]1CC(F)(F)CN1C2=O` returned a GI50 of 0.19 µM.
